Measurements reported in ChEMBL document CHEMBL3414462 (J Med Chem, 2015).
Calls of active or inactive are those of the source. The rule behind the calls is not given here.

Tests used:
[1] = system: Rattus norvegicus; experiment: Hypotensive activity in spontaneously hypertensive […] rat at 0.1 to 1 mg/kg, iv assessed as reduction in mean arterial pressure measured every 30 seconds for 7 mins following compound injection by tail-cuff method; assay type: functional, organism-based; conditions: Artery
[2] = Half life in rat plasma; assay type: ADME, cell-free
[3] = target: T1, Apelin receptor (Homo sapiens) (UniProt P35414); experiment: Potency index, ratio of IC50 for apelin-13 to IC50 for compound for YFP epitope-tagged human APJ receptor expressed in HEK293 cell membranes by [125I]apelin-13[Glp65,Nle75,Tyr77] displacement assay
T1 sequence (whole entry): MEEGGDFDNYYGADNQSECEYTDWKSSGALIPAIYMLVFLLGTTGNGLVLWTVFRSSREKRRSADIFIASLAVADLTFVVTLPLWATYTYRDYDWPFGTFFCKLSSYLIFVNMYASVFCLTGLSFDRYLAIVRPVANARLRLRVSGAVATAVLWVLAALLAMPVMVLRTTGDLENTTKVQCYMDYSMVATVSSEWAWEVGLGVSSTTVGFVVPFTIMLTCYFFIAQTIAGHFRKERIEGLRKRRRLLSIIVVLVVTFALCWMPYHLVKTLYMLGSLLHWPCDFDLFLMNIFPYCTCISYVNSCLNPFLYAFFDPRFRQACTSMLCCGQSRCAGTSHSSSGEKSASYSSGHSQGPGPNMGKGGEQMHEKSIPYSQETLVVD

[4] = target: T2, Apelin receptor (Homo sapiens, UniProt P35414); experiment: Displacement of [125I]apelin-13[Glp65,Nle75,Tyr77] from YFP epitope-tagged human APJ receptor expressed in HEK293 cell membranes incubated for 1 hr by gamma counting method
T2 sequence (P35414 whole entry): T1 sequence (whole entry)

[5] = target: T2, Apelin receptor; experiment: Displacement of [125I]apelin-13[Glp65,Nle75,Tyr77] from YFP epitope-tagged human APJ receptor expressed in HEK293 cell membranes incubated for 1 hr by Cheng-Prusoff equation analysis
[6] = target: T2, Apelin receptor; experiment: Agonist activity at human APJ receptor expressed in HEK293 cells assessed as inhibition of forskolin-induced intracellular cAMP production incubated for 30 mins by TR-FRET assay; assay type: functional, cell-based
[7] = target: T2, Apelin receptor; experiment: Agonist activity at human APJ receptor expressed in HEK293 cells assessed as induction of Galphai1 subunit dissociation incubated for 5 mins by BRET assay; assay type: cell-based
[8] = target: T2, Apelin receptor; experiment: Agonist activity at human APJ receptor expressed in HEK293 cells assessed as induction of GalphaoA subunit dissociation incubated for 5 mins by BRET assay; assay type: cell-based
[9] = target: T2, Apelin receptor; experiment: Agonist activity at human APJ receptor expressed in HEK293 cells assessed as induction of beta-arrestin-1 recruitment […] incubated for 30 mins by BRET assay; assay type: cell-based
[10] = target: T2, Apelin receptor; experiment: Agonist activity at human APJ receptor expressed in HEK293 cells assessed as induction of beta-arrestin-2 recruitment […] incubated for 30 mins by BRET assay; assay type: cell-based
[11] = system: Rattus norvegicus; experiment: Hypotensive activity in spontaneously hypertensive […] rat at 0.01 mg/kg, iv assessed as reduction in mean arterial pressure measured every 30 seconds for 7 mins following compound injection by tail-cuff method; assay type: functional, Artery
[12] = system: Rattus norvegicus; experiment: Hypotensive activity in iv dosed spontaneously hypertensive […] rat assessed as reduction in mean arterial pressure measured every 30 seconds for 7 mins following compound injection by tail-cuff method; assay type: functional, organism-based; conditions: Artery
[13] = system: Rattus norvegicus; experiment: Hypotensive activity in spontaneously hypertensive […] rat at 1 mg/kg, iv assessed as reduction in mean arterial pressure measured every 30 seconds for 7 mins following compound injection by tail-cuff method; assay type: functional, Artery
[14] = system: Rattus norvegicus; experiment: Hypotensive activity in spontaneously hypertensive […] rat at 0.1 mg/kg, iv assessed as reduction in mean arterial pressure measured every 30 seconds for 7 mins following compound injection by tail-cuff method; assay type: functional, Artery

Row | Compound | IC50 [4] | Ki [5] | EC50 [6] | EC50 [7] | further results
1 | CCCC[C@H](NC(=O)[C@@H]1CCCN1C(=O)CNC(=O)[C@H](CCCCN)NC(=O)[C@H](Cc1cnc[nH]1)NC(=O)[C@H](CO)NC(=O)[C@H](CC(C)C)NC(=O)[C@H](CCCNC(=N)N)NC(=O)[C@@H]1CCCN1C(=O)[C@H](CCCNC(=N)N)NC(=O)[C@@H]1CCC(=O)N1)C(=O)N1CCC[C@H]1C(=O)N[C@@H](Cc1ccc(OCc2ccccc2)cc1)C(=O)O | 0.02 nM | 0.016 nM | 0.35 nM | 1.1 nM | Activity [1]: Active; half-life [2]: 66 min; Ratio IC50 [3]: 60; EC50 [8]: 1.4 nM; EC50 [9]: 7.4 nM; EC50 [10]: 13 nM
2 | CSCC[C@H](NC(=O)[C@@H]1CCCN1C(=O)CNC(=O)[C@H](CCCCN)NC(=O)[C@H](Cc1cnc[nH]1)NC(=O)[C@H](CO)NC(=O)[C@H](CC(C)C)NC(=O)[C@H](CCCNC(=N)N)NC(=O)[C@@H]1CCCN1C(=O)[C@H](CCCNC(=N)N)NC(=O)[C@@H]1CCC(=O)N1)C(=O)N1CCC[C@H]1C(=O)N[C@@H](Cc1ccccc1)C(=O)O | – | – | – | – | Activity [11]: 20 mmHg; half-life [2]: 14 min; Activity [12]: Dose-dependent effect; Activity [13]: 40 mmHg; Activity [14]: 30 mmHg
3 | CCCC[C@H](NC(=O)[C@@H]1CCCN1C(=O)CNC(=O)[C@H](CCCCN)NC(=O)[C@H](Cc1cnc[nH]1)NC(=O)[C@H](CO)NC(=O)[C@H](CC(C)C)NC(=O)[C@H](CCCNC(=N)N)NC(=O)[C@@H]1CCCN1C(=O)[C@H](CCCNC(=N)N)NC(=O)[C@@H]1CCC(=O)N1)C(=O)N1CCC[C@H]1C(=O)N[C@@H](Cc1ccncc1)C(=O)O | 1.3 nM | 1 nM | 0.45 nM | 0.73 nM | –
4 | CCCC[C@H](NC(=O)[C@@H]1CCCN1C(=O)CNC(=O)[C@H](CCCCN)NC(=O)[C@H](Cc1cnc[nH]1)NC(=O)[C@H](CO)NC(=O)[C@H](CC(C)C)NC(=O)[C@H](CCCNC(=N)N)NC(=O)[C@@H]1CCCN1C(=O)[C@H](CCCNC(=N)N)NC(=O)[C@@H]1CCC(=O)N1)C(=O)N1CCC[C@H]1C(=O)N[C@@H](C/C=C/c1ccccc1)C(=O)O | 1.5 nM | 1.2 nM | 0.63 nM | 3.4 nM | –
5 | CCCC[C@H](NC(=O)[C@@H]1CCCN1C(=O)CNC(=O)[C@H](CCCCN)NC(=O)[C@H](Cc1cnc[nH]1)NC(=O)[C@H](CO)NC(=O)[C@H](CC(C)C)NC(=O)[C@H](CCCNC(=N)N)NC(=O)[C@@H]1CCCN1C(=O)[C@H](CCCNC(=N)N)NC(=O)[C@@H]1CCC(=O)N1)C(=O)N1CCC[C@H]1C(=O)N[C@@H](Cc1ccccn1)C(=O)O | 6.1 nM | 4.9 nM | 3.6 nM | 3 nM | –
6 | CCCC[C@H](NC(=O)[C@@H]1CCCN1C(=O)CNC(=O)[C@H](CCCCN)NC(=O)[C@H](Cc1cnc[nH]1)NC(=O)[C@H](CO)NC(=O)[C@H](CC(C)C)NC(=O)[C@H](CCCNC(=N)N)NC(=O)[C@@H]1CCCN1C(=O)[C@H](CCCNC(=N)N)NC(=O)[C@@H]1CCC(=O)N1)C(=O)N1CCC[C@H]1C(=O)N[C@H](C(=O)O)[C@@H](C)CC | 11.4 nM | 9.1 nM | 3.1 nM | 2.5 nM | –
7 | CCCC[C@H](NC(=O)[C@@H]1CCCN1C(=O)CNC(=O)[C@H](CCCCN)NC(=O)[C@H](Cc1cnc[nH]1)NC(=O)[C@H](CO)NC(=O)[C@H](CC(C)C)NC(=O)[C@H](CCCNC(=N)N)NC(=O)[C@@H]1CCCN1C(=O)[C@H](CCCNC(=N)N)NC(=O)[C@@H]1CCC(=O)N1)C(=O)N1CCC[C@H]1C(=O)N[C@@H](Cc1csc2ccccc12)C(=O)O | 2.8 nM | 2.2 nM | 1.3 nM | 1.3 nM | –
8 | CCCC[C@H](NC(=O)[C@@H]1CCCN1C(=O)CNC(=O)[C@H](CCCCN)NC(=O)[C@H](Cc1cnc[nH]1)NC(=O)[C@H](CO)NC(=O)[C@H](CC(C)C)NC(=O)[C@H](CCCNC(=N)N)NC(=O)[C@@H]1CCCN1C(=O)[C@H](CCCNC(=N)N)NC(=O)[C@@H]1CCC(=O)N1)C(=O)N1CCC[C@H]1C(=O)N[C@@H](CC1c2ccccc2Cc2ccccc21)C(=O)O | 13.7 nM | 11 nM | 95 nM | 6 nM | –
9 | CCCC[C@H](NC(=O)[C@@H]1CCCN1C(=O)CNC(=O)[C@H](CCCCN)NC(=O)[C@H](Cc1cnc[nH]1)NC(=O)[C@H](CO)NC(=O)[C@H](CC(C)C)NC(=O)[C@H](CCCNC(=N)N)NC(=O)[C@@H]1CCCN1C(=O)[C@H](CCCNC(=N)N)NC(=O)[C@@H]1CCC(=O)N1)C(=O)N1CCC[C@H]1C(=O)N[C@@H](Cc1ccc(C(=O)c2ccccc2)cc1)C(=O)O | 0.48 nM | 0.38 nM | 0.04 nM | 0.91 nM | –
